# Results from the supplement of paper PMC10307832.
# Columns and labels:
# Experiment in all cases: relative viability (nuclei count vs DMSO), 5 days (fraction); higher = more cells survive
# [1] = compound: CS(=O)(=O)c1ccc(C(=O)Nc2ccc(Cl)c(-c3ccccn3)c2)c(Cl)c1 [Vismodegib] + CS(=O)(=O)N1CCN(Cc2cc3nc(-c4cccc5[nH]ncc45)nc(N4CCOCC4)c3s2)CC1 [Pictilisib] (partner 1 µM)
# How it was run: (§1)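 After 5 days of treatment, lung cancer cells in 1536-well plates were fixed and stained in a single step (final 0.05% Triton X-100, 1% formaldehyde, 1 ug/ml Hoechst) and their nuclei counted on 4× images. Treatment had been applied by pin tool the day after seeding as one drug alone or as a fixed anchor-drug dose with five library-drug doses (not always all listed) in √10 steps. Relative viability is the nuclei count of treated wells divided by that of vehicle wells, and values are medians of duplicate plates.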
# [2] = compound: CS(=O)(=O)c1ccc(-c2cnc(N)c(C(=O)Nc3ccccc3)n2)cc1 [VE-821] + CC1(C)CCC(c2ccc(Cl)cc2)=C(CN2CCN(c3ccc(C(=O)NS(=O)(=O)c4ccc(N[C@H](CCN5CCOCC5)CSc5ccccc5)c(S(=O)(=O)C(F)(F)F)c4)cc3)CC2)C1 [Navitoclax] (partner 0.5 µM)
# How it was run: as §1
# [3] = compound: CS(=O)(=O)c1ccc(C(=O)Nc2ccc(Cl)c(-c3ccccn3)c2)c(Cl)c1 [Vismodegib] + CCNC(=O)c1noc(-c2cc(C(C)C)c(O)cc2O)c1-c1ccc(CN2CCOCC2)cc1 [Luminespib] (partner 0.01 µM)
# How it was run: as §1
Cell Line,relative viability ([1]; first compound 0.08 µM),relative viability ([1]; first compound 0.253 µM),relative viability ([1]; first compound 0.8 µM),relative viability ([1]; first compound 2.53 µM),relative viability ([1]; first compound 8 µM),relative viability ([2]; first compound 0.08 µM),relative viability ([2]; first compound 0.253 µM),relative viability ([2]; first compound 0.8 µM),relative viability ([2]; first compound 2.53 µM),relative viability ([2]; first compound 8 µM),relative viability ([3]; first compound 0.08 µM),relative viability ([3]; first compound 0.253 µM),relative viability ([3]; first compound 0.8 µM),relative viability ([3]; first compound 2.53 µM),relative viability ([3]; first compound 8 µM)
NCI-H1437,0.504,0.487,0.47,0.536,0.483,1.17,1.11,1.01,1.12,1.04,0.956,1.13,1.1,1.09,1.07
NCI-H1650,0.557,0.587,0.558,0.529,0.639,1.45,1.25,0.725,1.29,0.751,0.214,0.192,0.212,0.178,0.18
NCI-H1651,0.579,0.549,0.523,0.54,0.637,0.97,0.941,0.949,1.02,0.864,0.816,0.819,0.86,0.866,0.791
NCI-H1666,0.341,0.41,0.42,0.434,0.537,0.98,1.01,0.939,0.875,0.703,0.985,0.986,1.15,0.999,1.06
NCI-H1734,0.429,0.446,0.429,0.469,0.512,1.03,0.875,0.79,0.862,0.63,0.19,0.186,0.166,0.198,0.189
NCI-H1755,0.43,0.406,0.471,0.448,0.449,1.03,0.992,0.732,0.928,0.83,0.403,0.327,0.39,0.366,0.461
NCI-H1792,0.28,0.299,0.23,0.227,0.28,0.66,0.639,0.63,0.685,0.623,0.344,0.517,0.342,0.467,0.414
NCI-H1793,,0.413,0.411,0.367,0.325,0.693,0.507,0.251,0.449,0.314,,0.214,0.189,0.482,0.19
NCI-H1915,0.997,1.01,0.851,0.826,0.727,0.8,0.81,0.826,0.79,0.678,0.759,0.758,0.785,0.837,0.769
NCI-H1944,0.354,0.349,0.308,0.327,0.345,1.16,0.997,0.92,1.1,0.643,0.729,0.716,0.782,0.758,0.83
NCI-H1975,0.294,0.311,0.264,0.304,0.307,1,1.11,0.899,1.02,0.652,0.143,0.185,0.205,0.218,0.259
NCI-H1993,0.875,0.947,0.771,0.792,0.822,0.787,0.747,0.772,0.797,0.694,0.799,0.865,0.747,0.814,0.796
NCI-H2009,0.818,0.858,0.727,0.812,0.908,1.16,1.13,1.13,1.26,1.16,0.873,0.968,1.03,1.01,1.04
NCI-H2023,0.268,0.229,0.195,0.238,0.254,1.01,1.02,0.808,0.686,0.296,0.634,0.789,0.891,0.68,0.794
NCI-H2085,0.418,0.447,0.377,0.444,0.417,1.12,1.12,1.24,1.24,1.03,0.393,0.441,0.423,0.434,0.474
NCI-H2087,0.673,0.702,0.843,0.874,0.732,1.04,1.04,1.06,1.17,0.892,0.171,0.192,0.172,0.203,0.209
NCI-H2126,0.519,0.521,0.446,0.493,0.484,0.897,0.821,0.833,0.815,0.699,0.84,0.921,0.809,0.851,0.82
NCI-H2170,0.301,0.286,0.306,0.347,0.325,0.598,0.561,0.512,0.554,0.323,0.677,0.513,0.762,0.645,0.7
NCI-H2228,0.493,0.538,0.359,0.413,0.347,0.943,1.01,0.811,0.842,0.741,0.225,0.183,0.182,0.127,0.18
